Laboratory results taken from patent publication US9708314B2, “Heterocyclic amide compound” (NISSAN CHEMICAL INDUSTRIES, LTD., priority 2013, dated 2017).

Columns and labels:
Format in all cases: in vivo
Stellaria media = test: Test Example 4: herbicidal effect by application to foliage (diluvial soil, plastic box); settings: for P (Stellaria media) herbicidal effect grade: foliage application
Outline: (§1)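 Greenhouse plants (25° C. to 30° C., 14 d, diluvial soil) receive a foliar spray of water-diluted emulsifiable formulation at defined g/ha. Grading after 3 weeks uses a six-step herbicidal-ratio scale, with 4 covering 70% to <90% and 1 covering 5% to <20%.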

Avena fatua = test: as above; settings: for I (Avena fatua) herbicidal effect grade: foliage application
Outline: as §1

Apera spica-venti. = test: as above; settings: for L (Apera spica-venti.) herbicidal effect grade: foliage application
Outline: as §1

[1] = system: Echinochloa crus-galli var. crus-galli; test: as above; settings: for H (Echinochloa crus-galli var. crus-galli) herbicidal effect grade: foliage application
Outline: as §1

Alopecurus myosuroides = test: as above; settings: for J (Alopecurus myosuroides) herbicidal effect grade: foliage application
Outline: as §1

Abutilon theophrasti = test: as above; settings: for M (Abutilon theophrasti) herbicidal effect grade: foliage application
Outline: as §1

Amaranthus retroflexus = test: as above; settings: for N (Amaranthus retroflexus) herbicidal effect grade: foliage application
Outline: as §1

Veronica persica = test: as above; settings: for R (Veronica persica) herbicidal effect grade: foliage application
Outline: as §1

Chenopodium album = test: as above; settings: for O (Chenopodium album) herbicidal effect grade: foliage application
Outline: as §1

Digitaria ciliaris = test: as above; settings: for F (Digitaria ciliaris) herbicidal effect grade: foliage application
Outline: as §1

Lolium multiflorum Lam. = test: as above; settings: for K (Lolium multiflorum Lam.) herbicidal effect grade: foliage application
Outline: as §1

Setaria viridis = test: as above; settings: for G (Setaria viridis) herbicidal effect grade: foliage application
Outline: as §1

Galium spurium = test: as above; settings: for Q (Galium spurium) herbicidal effect grade: foliage application
Outline: as §1

[2] = system: directly sowed Oryza sativa; test: Test Example 3: effect on crop by application to foliage (Wagner pot, water depth 0.1-0.5 cm); settings: Nineteenth Table; application to foliage; application herbicide amount 320 g/ha
Outline: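 Rice-field weeds and directly sown rice were grown 14 days in flooded alluvial soil (water depth 0.1–0.5 cm) at 25–30 °C in a greenhouse. An emulsion formulation diluted to the stated g/ha rate was sprayed onto stems and leaves. Effects were scored on a 0–5 scale (herbicidal ratio bands) three weeks after treatment.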

[3] = application to foliage, application herbicide amount 320 g/ha
[4] = Application herbicide amount 320 g/ha

Row | SMILES | b (effect on crop grade) [2] | P (Stellaria media) herbicidal effect grade (Stellaria media; [4]) | I (Avena fatua) herbicidal effect grade (Avena fatua; [4]) | L (Apera spica-venti.) herbicidal effect grade (Apera spica-venti.; [4]) | H (Echinochloa crus-galli var. crus-galli) herbicidal effect grade [1, 4] | J (Alopecurus myosuroides) herbicidal effect grade (Alopecurus myosuroides; [4]) | M (Abutilon theophrasti) herbicidal effect grade (Abutilon theophrasti; [4]) | N (Amaranthus retroflexus) herbicidal effect grade (Amaranthus retroflexus; [4]) | R (Veronica persica) herbicidal effect grade (Veronica persica; [4]) | O (Chenopodium album) herbicidal effect grade (Chenopodium album; [4]) | F (Digitaria ciliaris) herbicidal effect grade (Digitaria ciliaris; [4]) | K (Lolium multiflorum Lam.) herbicidal effect grade (Lolium multiflorum Lam.; [4]) | G (Setaria viridis) herbicidal effect grade (Setaria viridis; [4]) | Q (Galium spurium) herbicidal effect grade (Galium spurium; [4]) | further results
1 | Cn1nnnc1NC(=O)c1ccc(C(F)(F)F)n2c(C[S+](C)[O-])nnc12 (stereo not shown) [2-033] | 5 (Herbicidal ratio of 90% or more (almost completely withered)) | – | – | – | – | – | – | – | – | – | – | – | – | – | P (Stellaria media) herbicidal effect grade (Stellaria media; 320 g/ha): 5 (Herbicidal ratio of 90% or more (almost completely withered)); I (Avena fatua) herbicidal effect grade (Avena fatua; 320 g/ha): 5 (Herbicidal ratio of 90% or more (almost completely withered)); L (Apera spica-venti.) herbicidal effect grade (Apera spica-venti.; 320 g/ha): 5 (Herbicidal ratio of 90% or more (almost completely withered)); H (Echinochloa crus-galli var. crus-galli) herbicidal effect grade ([1]; 320 g/ha): 5 (Herbicidal ratio of 90% or more (almost completely withered)); J (Alopecurus myosuroides) herbicidal effect grade (Alopecurus myosuroides; 320 g/ha): 4 (Herbicidal ratio of 70% or more and less than 90%); M (Abutilon theophrasti) herbicidal effect grade (Abutilon theophrasti; 320 g/ha): 5 (Herbicidal ratio of 90% or more (almost completely withered)); N (Amaranthus retroflexus) herbicidal effect grade (Amaranthus retroflexus; 320 g/ha): 5 (Herbicidal ratio of 90% or more (almost completely withered)); R (Veronica persica) herbicidal effect grade (Veronica persica; 320 g/ha): 5 (Herbicidal ratio of 90% or more (almost completely withered)); O (Chenopodium album) herbicidal effect grade (Chenopodium album; 320 g/ha): 5 (Herbicidal ratio of 90% or more (almost completely withered)); F (Digitaria ciliaris) herbicidal effect grade (Digitaria ciliaris; 320 g/ha): 5 (Herbicidal ratio of 90% or more (almost completely withered)); K (Lolium multiflorum Lam.) herbicidal effect grade (Lolium multiflorum Lam.; 320 g/ha): 4 (Herbicidal ratio of 70% or more and less than 90%); G (Setaria viridis) herbicidal effect grade (Setaria viridis; 320 g/ha): 5 (Herbicidal ratio of 90% or more (almost completely withered)); Q (Galium spurium) herbicidal effect grade (Galium spurium; 320 g/ha): 5 (Herbicidal ratio of 90% or more (almost completely withered))
2 | COCCOCc1nnc2c(C(=O)Nc3nnnn3C)ccc(C(F)(F)F)n12 [2-014] | 5 (Herbicidal ratio of 90% or more (almost completely withered)) | – | – | – | – | – | – | – | – | – | – | – | – | – | P: herbicidal effect on Stellaria media (Stellaria media; [3]): 5 (Herbicidal ratio of 90% or more (almost completely withered)); I: herbicidal effect on Avena fatua (Avena fatua; [3]): 4 (Herbicidal ratio of 70% or more and less than 90%); L: herbicidal effect on Apera spica-venti. (Apera spica-venti.; [3]): 4 (Herbicidal ratio of 70% or more and less than 90%); H: herbicidal effect on Echinochloa crus-galli var. crus-galli [1, 3]: 5 (Herbicidal ratio of 90% or more (almost completely withered)); J: herbicidal effect on Alopecurus myosuroides (Alopecurus myosuroides; [3]): 4 (Herbicidal ratio of 70% or more and less than 90%); M: herbicidal effect on Abutilon theophrasti (Abutilon theophrasti; [3]): 5 (Herbicidal ratio of 90% or more (almost completely withered)); N: herbicidal effect on Amaranthus retroflexus (Amaranthus retroflexus; [3]): 5 (Herbicidal ratio of 90% or more (almost completely withered)); R: herbicidal effect on Veronica persica (Veronica persica; [3]): 5 (Herbicidal ratio of 90% or more (almost completely withered)); O: herbicidal effect on Chenopodium album (Chenopodium album; [3]): 5 (Herbicidal ratio of 90% or more (almost completely withered)); F: herbicidal effect on Digitaria ciliaris (Digitaria ciliaris; [3]): 5 (Herbicidal ratio of 90% or more (almost completely withered)); K: herbicidal effect on Lolium multiflorum Lam. (Lolium multiflorum Lam.; [3]): 4 (Herbicidal ratio of 70% or more and less than 90%); G: herbicidal effect on Setaria viridis (Setaria viridis; [3]): 5 (Herbicidal ratio of 90% or more (almost completely withered)); Q: herbicidal effect on Galium spurium (Galium spurium; [3]): 4 (Herbicidal ratio of 70% or more and less than 90%)
3 | O=C(Nc1nnco1)c1ccc(C(F)(F)F)n2c(N3CCCC3)nnc12 [1-139] | 1 (Herbicidal ratio of 5% or more and less than 20%) | 5 (Herbicidal ratio of 90% or more (almost completely withered)) | 1 (Herbicidal ratio of 5% or more and less than 20%) | 0 (Herbicidal ratio of 5% or less (almost no effect)) | 5 (Herbicidal ratio of 90% or more (almost completely withered)) | 0 (Herbicidal ratio of 5% or less (almost no effect)) | 3 (Herbicidal ratio of 40% or more and less than 70%) | 4 (Herbicidal ratio of 70% or more and less than 90%) | 5 (Herbicidal ratio of 90% or more (almost completely withered)) | 5 (Herbicidal ratio of 90% or more (almost completely withered)) | 5 (Herbicidal ratio of 90% or more (almost completely withered)) | 1 (Herbicidal ratio of 5% or more and less than 20%) | 3 (Herbicidal ratio of 40% or more and less than 70%) | 2 (Herbicidal ratio of 20% or more and less than 40%) | –
4 | CN(c1nnc2c(C(=O)Nc3nnco3)ccc(C(F)(F)F)n12)C1CCCCC1 [1-123] | 1 (Herbicidal ratio of 5% or more and less than 20%) | 4 (Herbicidal ratio of 70% or more and less than 90%) | 1 (Herbicidal ratio of 5% or more and less than 20%) | 0 (Herbicidal ratio of 5% or less (almost no effect)) | 4 (Herbicidal ratio of 70% or more and less than 90%) | 0 (Herbicidal ratio of 5% or less (almost no effect)) | 4 (Herbicidal ratio of 70% or more and less than 90%) | 4 (Herbicidal ratio of 70% or more and less than 90%) | 3 (Herbicidal ratio of 40% or more and less than 70%) | 5 (Herbicidal ratio of 90% or more (almost completely withered)) | 4 (Herbicidal ratio of 70% or more and less than 90%) | 0 (Herbicidal ratio of 5% or less (almost no effect)) | 3 (Herbicidal ratio of 40% or more and less than 70%) | 2 (Herbicidal ratio of 20% or more and less than 40%) | –
5 | Cc1nnc(NC(=O)c2ccc(C(F)(F)F)n3c(N4CCS(=O)(=O)CC4)nnc23)o1 [1-120] | 3 (Herbicidal ratio of 40% or more and less than 70%) | 5 (Herbicidal ratio of 90% or more (almost completely withered)) | 3 (Herbicidal ratio of 40% or more and less than 70%) | 5 (Herbicidal ratio of 90% or more (almost completely withered)) | 5 (Herbicidal ratio of 90% or more (almost completely withered)) | 3 (Herbicidal ratio of 40% or more and less than 70%) | 4 (Herbicidal ratio of 70% or more and less than 90%) | 5 (Herbicidal ratio of 90% or more (almost completely withered)) | 5 (Herbicidal ratio of 90% or more (almost completely withered)) | 5 (Herbicidal ratio of 90% or more (almost completely withered)) | 5 (Herbicidal ratio of 90% or more (almost completely withered)) | 3 (Herbicidal ratio of 40% or more and less than 70%) | 5 (Herbicidal ratio of 90% or more (almost completely withered)) | 5 (Herbicidal ratio of 90% or more (almost completely withered)) | –
